Reference: patent US3935221A, “Substituted fusaric acid derivatives” (Banyu Pharmaceutical Co., Ltd., priority 1971, dated 1976)
Where two headings read alike, the source gives them in different places.

What was measured:
Solubility = type: physicochemical; conditions: qualitative
male mice (DBA) = assay: Acute toxicity, LD50 of each drug in male mice (DBA); type: in vivo; conditions: male mice (DBA), summary statement
Excerpt: (§1) In this invention, 10-monohalo-fusaric acid can be prepared by dissolving dehydrofusaric acid in water or other suitable organic solvent, if necessary, together with a suitable reagent for generating hydrogen halide. Hydrogen halide is then introduced or generated to effect the addition reaction. […] The halo-fusaric halide can be prepared by reacting halogenating agent such as thionylchloride, hydrochloride with halo-fusaric acid in a solvent. The solvent can be inert solvent or halogenating agent such as thionyl chloride. The ahlo-fusaric acid amides of the invention can be prepared from the halo-fusaric halide in a solvent by introducing ammonia gas or adding methylamine, dimethylamine, ethylamine, diethylamine, etc.. The halogenating agents used for preparing halo-fusaric halide can be thionylchloride, hydrochloride, phosphorus pentachloride and phosphorus oxychloride. The thionylchloride can be used without a solvent, however, it is usual to carry out the halogenation of halo-fusaric acid in a solvent such as chloroform, benzene, etc.. The halo-fusaric halide reacts with ammonia or a lower alkylamine in a solvent such as chloroform, benzene, etc.. The ahlo-fusaric acid amide can be prepared from halo-fusaric acid ester by reacting it with an alkylamine. The halo-fusaric acid ester can be prepared by reacting halo-fusaric acid with an alcohol in the presence of […]. The details of the preparation of the halo-fusaric acid can be understood from the description of the examples. The halo-fusaric acid amides of the invention are characterized by a significant anti-hypertensive effects and low toxicity. The followings are test results of anti-hypertensive effects and toxicities of the typical halo-fusaric acid amides of the invention. The anti-hypertensive effects of dibromo, monobromo, dichloro and monochloro fusaric acid amide, monomethylamide, dimethylamide were compared with those of dibromofusaric acid and fusaric acid. Blood pressure of spontaneously hypertensive rats (SHR) derived from the colony of SHR produced by selective inbreeding of a strain of Wistar rats (Okamoto and Aoki, Jap. Circul. J. 27:282-293, 1963) was measured indirectly in unanaesthesized rats plethysmographically (Williams et al, J. Clin. Invest. 18:373-376, 1939). Thirty percent depression of systolic blood pressure was defined to be significant and effective change. […] LD50 of each drug was obtained using male mice (DBA).

[1] = as above; type: in vivo; conditions: mouse, in vivo
Excerpt: as §1

[2] = tested on: spontaneously hypertensive rats (SHR); assay: Antihypertensive action in spontaneously hypertensive rats, systolic blood pressure measured plethysmographically; type: in vivo, Wistar-derived); conditions: for ED50: Rattus norvegicus
Excerpt: as §1

[3] = prior art statement; cited from earlier work
dopamine-β-hydroxylase = conditions: prior art statement; cited from earlier work
[4] = ip, intraperitoneal, male mice (DBA), read-out: LD50 (mg/kg) Intraperitaneally
[5] = oral, male mice (DBA), read-out: LD50 (mg/kg) Orally
[6] = ip, read-out: ED50 (mg/kg) Intraperitoneally
[7] = po, read-out: ED50 (mg/kg) Orally
[8] = ip, antihypertensive action, intraperitoneal, SHR, 30% depression of systolic blood pressure defined as effective, read-out: ED50 (mg/kg) Intraperitoneally
[9] = antihypertensive action, oral, SHR, 30% depression of systolic blood pressure defined as effective, read-out: ED50 (mg/kg) Orally

SMILES	Solubility: insoluble (Solubility)	Solubility: soluble (Solubility)	toxicity (in words) (male mice (DBA))	LD50 [1, 4]	LD50 [1, 5]	ED50 [2, 6]	ED50 [2, 7]	anti-hypertensive effects (in words) ([2]; SHR, summary statement)	ED50 [2, 8]	ED50 [2, 9]	LD50 ([1]; ip)	LD50 ([1]; po)	toxicity [3]	inhibition of the production of dopamine-β-hydroxylase (dopamine-β-hydroxylase)
CC(Br)CCc1ccc(C(=O)O)nc1 (stereo not shown) [10-bromo-fusaric acid, 5-(3-bromobutyl)picolinic acid]	insoluble in n-hexane, petroleum ether	soluble in alcohol, chloroform, acetone, benzene, ethylacetate, and is soluble in hot water but difficulty soluble in cold water												
NC(=O)c1ccc(CCC(Br)CBr)cn1 (stereo not shown) [Compound 1, 5-(3,4-Dibromobutyl)picolinamide]	Insoluble in water, ether	Soluble in alcohol, acetone, benzene, chloroform	the least toxic	1170 mg/kg	1860 mg/kg	1 mg/kg	1.6 mg/kg	the most effective drug for hypertension						
CC(Br)CCc1ccc(C(N)=O)nc1 (stereo not shown) [Compound 2, 5-(3-Bromobutyl)picolinamide]				633 mg/kg	1050 mg/kg				2 mg/kg	4 mg/kg				
CN(C)C(=O)c1ccc(CCC(Br)CBr)cn1 (stereo not shown) [Compound 3, N.N-Dimethyl-5-(3,4-dibromobutyl)picolinamide]									3 mg/kg	4 mg/kg	304 mg/kg	500 mg/kg		
NC(=O)c1ccc(CCC(Cl)CCl)cn1 (stereo not shown) [Compound 4, 5-(3,4-Dichlorobutyl)picolinamide]	Insoluble in water, ether	Soluble in methanol, acetone, benzene, chloroform		374 mg/kg	620 mg/kg				2 mg/kg	4 mg/kg				
CN(C)C(=O)c1ccc(CCC(Cl)CCl)cn1 (stereo not shown) [Compound 5, N.N-Dimethyl-5-(3,4-dichlorobutyl)picolinamide]									5 mg/kg	1.6 mg/kg	188 mg/kg	300 mg/kg		
O=C(O)c1ccc(CCC(Br)CBr)cn1 (stereo not shown) [Compound 6, 5-(3,4-dibromobutyl)picolinic acid, reference compound]	insoluble in cold water and petroleum ether	soluble in alcohol, chloroform, benzene, ethylacetate, and hot water		132 mg/kg	180 mg/kg				3.2 mg/kg	4 mg/kg				
CCCCc1ccc(C(=O)O)nc1 [Compound 7, Fusaric acid]				110 mg/kg	130 mg/kg	3.5 mg/kg	4 mg/kg						quite high in toxicity	inhibit the production of dopamine-β-hydroxylase
